From patent EP2525820B1, “NOVEL CLASS OF MONOSPECIFIC AND BISPECIFIC HUMANIZED ANTIBODIES THAT TARGET THE INSULIN-LIKE GROWTH FACTOR TYPE I RECEPTOR (IGF-1R)” (Immunomedics, Inc., priority 2010, dated 2011)

How the values were obtained:
DDD = DDD of RII / RIIα dimers; read-out: binding constant for DDD; cited from earlier work
CAG human myeloma cells = format: in vivo, SCID mice
Method: CAG human myeloma cells are grown in cell culture to a density that allows 1 million cells to be harvested for transplantation to 6-8-week old female SCID mice obtained from Charles River Laboratories (Frederick, MD). The mice are immunosuppressed by pretreatment with fludarabine and cyclophosphamide 3 days before intravenous injection of 5-10 x […] myeloma cells as described in Stein et al. (Blood. 2004; 104:3705-11). Mice are examined daily for signs of distress or hind-leg paralysis, and weighed weekly. Paralysis of the hind legs or a weight loss of ≥ 20% is used as the survival endpoint, when the animals are euthanized. Groups of 8-10 mice are used. […] The effects of combining bortezomib with hR1 are evaluated in the same myeloma model. Treatments are given as two i.p. doses/week for 3 weeks, initiated on day 5 after injection of the myeloma cells. […] Treatment with hR1 at 0.6 mg/mouse repeated twice weekly for 3 weeks increases the median survival time to 60 days. When bortezomib and hR1 treatments are combined, the median survival time is increased further to 79 days for 0.5 mg bortezomib + 0.6 mg hR1, which is significant (P=0.04).

RII isoform of PKA = RII isoform of PKA (Homo sapiens, UniProt P13861); settings: cited from earlier work
RII isoform of PKA, sequence (P13861 whole entry, canonical isoform): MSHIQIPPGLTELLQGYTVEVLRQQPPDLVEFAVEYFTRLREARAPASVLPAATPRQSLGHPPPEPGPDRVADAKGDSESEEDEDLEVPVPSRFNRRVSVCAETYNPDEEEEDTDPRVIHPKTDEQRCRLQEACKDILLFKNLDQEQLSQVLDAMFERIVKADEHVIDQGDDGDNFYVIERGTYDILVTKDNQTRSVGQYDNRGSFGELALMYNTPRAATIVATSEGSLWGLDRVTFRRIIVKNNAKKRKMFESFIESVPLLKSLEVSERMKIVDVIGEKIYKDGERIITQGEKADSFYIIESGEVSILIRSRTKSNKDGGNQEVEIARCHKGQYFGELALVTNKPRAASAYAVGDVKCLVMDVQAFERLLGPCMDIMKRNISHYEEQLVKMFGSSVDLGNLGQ

DDD, sequence (P13861 2-45 limits assumed): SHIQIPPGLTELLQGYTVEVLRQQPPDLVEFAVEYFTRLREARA

## QIEYLAKQIVDNAIQQA (SEQ ID NO: 17) [AKAP-IS]
DDD
  Kd: 0.4 nM

## CC(C)C[C@H](NC(=O)[C@H](Cc1ccccc1)NC(=O)c1cnccn1)B(O)O [bortezomib]
CAG human myeloma cells; 0.5 mg/kg, versus untreated control mice
  increase of median survival: 21.2%
CAG human myeloma cells; mouse, in vivo, 0.5 mg/kg
  tolerability, body-weight loss: well tolerated, with no body-weight loss
CAG human myeloma cells; two i.p. doses/week for 3 weeks from day 5, bortezomib 0.5 mg/kg, hR1 0.6 mg/mouse, untreated control 33 days
  median survival: 40 days

## QIEYVAKQIVDYAIHQA (SEQ ID NO:39) [SuperAKAP-IS]
RII isoform of PKA
  selectivity for the RII isoform of PKA compared with the RI isoform: five order of magnitude higher selectivity
